One assay relates to Z-138 cells. As to the kind of experiment: Z-138 Proliferation Assay (Cell Titer Glo, 5 days). Type of assay: cell-based. To be noted: Homo sapiens, 120 h. From the text:
Z-138 Proliferation Assay
Z-138 suspension cells were purchased from ATCC (American Type Culture Collection, Manassas, Va.). RPMI/Glutamax medium, penicillin-streptomycin, heat inactivated fetal bovine serum were purchased from Life Technologies, Grand Island, N.Y., USA. V-bottom polypropylene 384-well plates were purchased from Greiner Bio-One, Monroe, N.C., USA. Cell culture 384-well white opaque plates were purchased from Perkin Elmer, Waltham, Mass., USA. Cell-Titer Glo® was purchased from Promega Corporation, Madison, Wis., USA. SpectraMax M5 plate reader was purchased from Molecular Devices LLC, Sunnyvale, Calif., USA.
Z-138 suspension cells were maintained in growth medium (RPMI 1640 supplemented with 10% v/v heat inactivated fetal bovine serum and cultured at 37° C. under 5% CO2 Under assay conditions, cells were incubated in assay medium (RPMI 1640 supplemented with 10% v/v heat inactivated fetal bovine serum and 100 units/mL penicillin-streptomycin) at 37° C. under 5% CO2.
For the assessment of the effect of compounds on the proliferation of the Z-138 cell line, exponentially growing cells were plated in 384-well white opaque plates at a density of 10,000 cells/ml in a final volume of 50 μl of assay medium. A compound source plate was prepared by performing triplicate nine-point 3-fold serial dilutions in DMSO, beginning at 10 mM (final top concentration of compound in the assay was 20 μM and the DMSO was 0.2%). A 100 nL aliquot from the compound stock plate was added to its respective well in the cell plate. […] After addition of compounds, assay plates were incubated for 5 days at 37° C., 5% CO2, relative humidity>90%.
Cell viability was measured by quantitation of ATP present in the cell cultures, adding 35 μl of Cell Titer Glo® reagent to the cell plates. Luminescence was read in the SpectraMax M5 microplate reader. The concentration of compound inhibiting cell viability by 50% was determined using a 4-parametric fit of the normalized dose response curves.

The next assay concerns the target T1, PRMT5/MEP50 (Homo sapiens, UniProt O14744).
T1 construct: Flag-PRMT5; 6His-MEP50
As to the kind of experiment: PRMT5 Biochemical Assay (PRMT5/MEP50 enzyme assay on peptide substrate, 3H-SAM Flashplate). The essentials:
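FLAG-PRMT5/His-MEP50 from Sf9 cells (4 nM) preincubated 30 min at 25 °C with compound in 20 mM Bicine pH 7.6, 1 mM TCEP, 1% DMSO. Reaction started with 75 nM 3H-SAM on 40 nM biotinylated H4 1-15 peptide, stopped with cold SAM. Bound 3H-peptide counted on streptavidin Flashplates, normalised to DMSO and 100 uM SAH controls.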

Assay [1] deals with Symmetric di-Methyl Arginine in Z-138 cells. As to the kind of experiment: Z-138 Methylation Assay (In Cell Western for symmetric di-methyl arginine and DNA content). The format is cell-based. The conditions noted are these: Homo sapiens, read-out: ICW EC50. From the text:
Z-138 suspension cells were purchased from ATCC (American Type Culture Collection, Manassas, Va.). RPMI/Glutamax medium, penicillin-streptomycin, heat inactivated fetal bovine serum, and D-PBS were purchased from Life Technologies, Grand Island, N.Y., USA. Odyssey blocking buffer, 800CW goat anti-rabbit IgG (H+L) antibody, and Licor Odyssey infrared scanner were purchased from Licor Biosciences, Lincoln, Nebr., USA. Symmetric di-methyl arginine antibody was purchased from EMD Millipore, Billerica, Mass., USA. 16% Paraformaldehyde was purchased from Electron Microscopy Sciences, Hatfield, Pa., USA.
Z-138 suspension cells were maintained in growth medium (RPMI 1640 supplemented with 10% v/v heat inactivated fetal bovine serum and 100 units/mL penicillin-streptomycin) and cultured at 37° C. under 5% CO2 […]
Calculations: First, the ratio for each well was determined by:
Each plate included fourteen control wells of DMSO only treatment (minimum inhibition) as well as fourteen control wells for maximum inhibition treated with 3 μM of a reference compound (Background wells). The average of the ratio values for each control type was calculated and used to determine the percent inhibition for each test well in the plate. […] Percent inhibition was determined and IC50 curves were generated using triplicate wells per concentration of compound.

SMILES strings stand for the structures. A value given as a limit tells only on which side of the number the result lay.

The values that follow come from patent publication US20180298010A1, “PRMT5 INHIBITORS AND USES THEREOF” (Epizyme, Inc., priority 2012, published 2018).

T1 sequence (O14744 with tags, fused parts or gaps): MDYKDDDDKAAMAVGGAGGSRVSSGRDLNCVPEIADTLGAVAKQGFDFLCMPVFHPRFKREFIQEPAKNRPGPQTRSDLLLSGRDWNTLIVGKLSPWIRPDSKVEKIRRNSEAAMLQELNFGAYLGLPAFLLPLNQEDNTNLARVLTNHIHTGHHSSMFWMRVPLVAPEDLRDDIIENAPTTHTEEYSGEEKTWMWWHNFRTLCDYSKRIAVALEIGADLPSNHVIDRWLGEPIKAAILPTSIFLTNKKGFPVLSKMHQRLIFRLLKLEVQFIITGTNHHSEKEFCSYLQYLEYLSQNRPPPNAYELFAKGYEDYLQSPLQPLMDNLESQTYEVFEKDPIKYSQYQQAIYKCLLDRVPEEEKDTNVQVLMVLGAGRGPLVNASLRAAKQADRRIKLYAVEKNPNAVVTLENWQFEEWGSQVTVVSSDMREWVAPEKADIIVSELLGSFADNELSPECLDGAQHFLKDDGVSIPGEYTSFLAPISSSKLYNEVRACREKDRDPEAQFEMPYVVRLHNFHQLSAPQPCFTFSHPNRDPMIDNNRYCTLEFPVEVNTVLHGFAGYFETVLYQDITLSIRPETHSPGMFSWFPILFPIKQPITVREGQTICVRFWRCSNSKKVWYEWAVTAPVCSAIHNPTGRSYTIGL
T1 sequence (Q9BQA1 with tags, fused parts or gaps partner): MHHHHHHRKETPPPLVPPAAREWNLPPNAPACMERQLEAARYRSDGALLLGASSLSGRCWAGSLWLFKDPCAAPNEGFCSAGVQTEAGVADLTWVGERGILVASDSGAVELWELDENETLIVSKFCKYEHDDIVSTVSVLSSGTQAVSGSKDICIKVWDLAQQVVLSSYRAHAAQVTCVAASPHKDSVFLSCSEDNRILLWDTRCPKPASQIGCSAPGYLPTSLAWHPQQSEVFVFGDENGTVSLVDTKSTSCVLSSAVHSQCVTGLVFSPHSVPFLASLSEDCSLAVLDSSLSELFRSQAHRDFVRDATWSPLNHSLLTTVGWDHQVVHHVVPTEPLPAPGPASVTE

In turn, `Cn1cnc2ccc(-c3cccc(OCC(O)CN4CCc5ccccc5C4)c3)cc21` (centres unmarked) [Compound 45, 1-(3,4-dihydroisoquinolin-2(1H)-yl)-3-(3-(1-methyl-1H-benzo[d]imidazol-6-yl)phenoxy)propan-2-ol] returned an EC50 in the assay on Z-138 cells of 1 to 10 µM.
With `OC(COc1cccc(-c2ccc3c(c2)OCO3)c1)CN1CCc2ccccc2C1` (centres unmarked) [Compound 59, 1-(3-(benzo[d][1,3]dioxol-5-yl)phenoxy)-3-(3,4-dihydroisoquinolin-2(1H)-yl)propan-2-ol], the IC50 at PRMT5/MEP50 lay within 101 to 1000 nM. Further, the EC50 in the assay with Z-138 cells lay within 10 to 40 µM.
On to `OC(COc1cccc(-c2ccc3nn[nH]c3c2)c1)CN1CCc2ccccc2C1` (centres unmarked) [Compound 84, 1-(3-(1H-benzo[d][1,2,3]triazol-6-yl)phenoxy)-3-(3,4-dihydroisoquinolin-2(1H)-yl)propan-2-ol], for which the IC50 on PRMT5/MEP50 is 101 to 1000 nM. The same compound yielded an EC50 with Z-138 cells of 1 to 10 µM.
In the assay on Z-138 cells, `Cn1cnc2ccc(-c3ccnc(NCC(O)CN4CCc5ccccc5C4)c3)cc21` (centres unmarked) [Compound 118, 1-(3,4-Dihydroisoquinolin-2(1H)-yl)-3-((4-(1-methyl-1H-benzo[d]imidazol-6-yl)pyridin-2-yl)amino)propan-2-ol] gave an EC50 of 1 to 10 µM.
As to `OC(COc1cccc(-c2ccc3ncsc3c2)c1)CN1CCc2ccccc2C1` (centres unmarked) [Compound 123, 1-(3-(benzo[d]thiazol-6-yl)phenoxy)-3-(3,4-dihydroisoquinolin-2(1H)-yl)propan-2-ol], the 50% effective concentration (EC50) lay within 1 to 10 µM in assay [1] and 10 to 40 µM in the assay with Z-138 cells.
For `COC(=O)c1cccc(-c2cccc(OCC(O)CN3CCc4ccccc4C3)c2)c1` (centres unmarked) [Compound 135], on PRMT5/MEP50, the IC50 was in the range of 101 to 1000 nM. Besides, the 50% effective concentration (EC50) in the assay with Z-138 cells was greater than 20 µM.
Consider `CN1CCN(c2ccc(-c3cccc(OCC(O)CN4CCc5ccccc5C4)c3)cn2)CC1` (centres unmarked) [Compound 149], for which, on PRMT5/MEP50, the IC50 fell in the range of 101 to 1000 nM. Also, the EC50 in the assay with Z-138 cells was in the range of 1 to 10 µM.
On to `Cn1cnc2ccc(-c3cccc(OC[C@@H](O)CN4CCc5ccccc5C4)c3)cc21` [Compound 173], for which, in the assay with Z-138 cells, the half-maximal effective concentration (EC50) lay in the range of 1 to 10 µM.
As to `Cn1cnc2ccc(-c3cccc(OC[C@H](O)CN4CCc5ccccc5C4)c3)cc21` [Compound 174], the 50% effective concentration (EC50) in the assay on Z-138 cells was 1 to 10 µM.
Consider `COC(=O)c1cncc(-c2cccc(OCC(O)CN3CCc4ccccc4C3)c2)c1` (centres unmarked) [Compound 180], for which the IC50 on PRMT5/MEP50 fell in the range of 1000 to 10000 nM. The EC50 in the assay with Z-138 cells is greater than 20 µM.
`Cn1cnc2ccc(-c3cccc(OCC(O)CN4CCc5ccccc5C4)c3)nc21` (centres unmarked) [Compound 189, 1-(3,4-dihydroisoquinolin-2(1H)-yl)-3-(3-(3-methyl-3H-imidazo[4,5-b]pyridin-5-yl)phenoxy)propan-2-ol] showed a half-maximal effective concentration (EC50) in the assay with Z-138 cells of 0.101 to 1 µM.
As to `OC(COc1cccc(-c2ccc3ncn(C4CNC4)c3c2)c1)CN1CCc2ccccc2C1` (centres unmarked) [Compound 208, 1-(3-(1-(azetidin-3-yl)-1H-benzo[d]imidazol-6-yl)phenoxy)-3-(3,4-dihydroisoquinolin-2(1H)-yl)propan-2-ol], the IC50 at PRMT5/MEP50 lay within 101 to 1000 nM. The EC50 in the assay on Z-138 cells was 1 to 10 µM.
For `CNC(=O)Cn1cnc2ccc(-c3cccc(OCC(O)CN4CCc5ccccc5C4)c3)cc21` (centres unmarked) [Compound 262] the same measures were 101 to 1000 nM and 1 to 10 µM.
For `O=C(Cn1cnc2ccc(-c3cccc(OCC(O)CN4CCc5ccccc5C4)c3)cc21)N1CCOCC1` (centres unmarked) [Compound 264] the same measures were 101 to 1000 nM and 1 to 10 µM.
On to `Cc1ncc2ccc(-c3cccc(OCC(O)CN4CCc5ccccc5C4)c3)cn12` (centres unmarked) [Compound 266, 1-(3,4-dihydroisoquinolin-2(1H)-yl)-3-(3-(3-methylimidazo[1,5-a]pyridin-6-yl)phenoxy)propan-2-ol], for which the half-maximal effective concentration (EC50) with Z-138 cells lay in the range of 1 to 10 µM.
Consider `Cn1cnc2ccc(-c3ccnc(NC[C@H](O)CN4CCc5ccccc5C4)c3)cc21` [Compound 275], for which, in the assay on Z-138 cells, the EC50 was 1 to 10 µM.
Still for that read-out and setting: to `Cn1cnc2ccc(-c3ccnc(NC[C@@H](O)CN4CCc5ccccc5C4)c3)cc21` [Compound 276] belongs 1 to 10 µM.

A word on the EC50: it is the midpoint of the concentration-response curve. As a reminder, the IC50 is the concentration that inhibits the measured activity by half.
